Measured values reported in patent US20160220569A1, “CDK4/6 Inhibitor Dosage Formulations For The Protection Of Hematopoietic Stem And Progenitor Cells During Chemotherapy” (G1 Therapeutics, Inc., priority 2015, published 2016).
Read-outs that look alike come from different tables or passages of the source.

Test: 14-day oral gavage toxicokinetic study in rats
Assay type: in vivo
Settings: rat, plasma, po; for concentration at 0.5 h / concentration at 1 h / concentration at 2 h / concentration at 4 h / concentration at 8 h / concentration at 12 h / concentration at 24 h / concentration at […]: rats; for concentration at 1 h: Day 14, 1 h; for concentration at 24 h: Day 14, 24 h; for half-life: read-out: t½ (converted)
Experimental: Plasma was obtained from blood samples collected from rats in a composite sampling scheme, with 3 samples collected per sex, per dose, at each target collection time, as illustrated in Table 21 to Table 25. Samples were collected from the vehicle control group on Day 1 and Day 14 at 3 hour after administration. […] Blood samples were collected in tubes containing K3EDTA as an anticoagulant and placed on ice until processed to plasma via centrifugation. Samples were stored frozen at −80° C. until shipment to the bioanalytical laboratory for analysis.
The following parameters were determined:
Cmax: Maximum observed plasma concentration (ng/mL).
A value of 0 ng/mL was assigned to all values below the lower limit of quantitation (BLQ, <10.0 ng/mL).
AUC(0-inf): Area under the plasma concentration vs. time curve extrapolated from 0 to infinity (ng*h/mL), calculated as AUC(0-t)+AUC(t-inf) where AUC(t-inf) is calculated as last measurable concentration (CLast) divided by ke, where ke is the elimination rate constant determined by linear regression of the last three analytically measured points on the log plasma concentration vs. time curve. The selection criteria of the data points for inclusion in the calculation of ke required that at least three data points representing the terminal phase (after Tmax) were regressed and that R2≧0.850 when rounded.
CL: Clearance (L/h/kg), calculated as the dose divided by AUC(0-t).
Vd: Volume of distribution (L/kg), calculated as dose divided by the product of ke and AUC(0-inf).
Vdss: Steady state volume of distribution (L/kg), calculated as clearance […] mean residence time, where mean residence time is calculated as the area under the first moment curve divided by AUC(0-t).
t½: Elimination half-life (h), calculated as ln(2)/ke, where ke is the elimination rate constant determined by linear regression. Half-life was defined as not determined if regression criteria (specified in AUC(0-inf) above) were not met.
Cmax/Dose: Normalized Cmax, calculated as Cmax divided by total dose.
AUC/Dose: Normalized AUC, calculated as AUC(0-t) divided by total dose.
ii. Statistical Analysis Mean and standard deviation (SD) were calculated in Watson. Values of BLQ were assigned a value of 0 ng/mL for mean calculations. Concentration values and derived TK parameters were reported to three significant figures.

[1] = both sexes, 15 mg/kg, Mean Compound 1 Plasma Concentration, oral 15 mg/kg, Overall
[2] = both sexes, 15 mg/kg, oral 15 mg/kg, Study Day 1, Overall
[3] = both sexes, 15 mg/kg, oral 15 mg/kg, Study Day 14, Overall
[4] = both sexes, 30 mg/kg, Mean Compound 1 Plasma Concentration, oral 30 mg/kg, Overall
[5] = both sexes, 30 mg/kg, oral 30 mg/kg, Study Day 1, Overall
[6] = both sexes, 30 mg/kg, oral 30 mg/kg, Study Day 14, Overall
[7] = female, 2 mg/kg, Compound 1 Plasma Concentration, Female, daily oral 2 mg/kg (Group 7), individual animals

SMILES: CN1CCN(c2ccc(Nc3ncc4cc5n(c4n3)C3(CCCCC3)CNC5=O)nc2)CC1 [Compound 1, 2′-((5-(4-methylpiperazin-1-yl)pyridin-2-yl)amino)-7′,8′-dihydro-6′H-spiro[cyclohexane-1,9′-pyrazino[1′,2′:1,5]pyrrolo[2,3-d]pyrimidin]-6′-one]
- concentration at 0.5 h (both sexes, 15 mg/kg, Mean Compound 1 Plasma Concentration, oral 15 mg/kg, Day 14, 0.5 h, Overall): 955 ng/mL
- concentration at 1 h [1]: 1150 ng/mL
- concentration at 2 h (both sexes, 15 mg/kg, Mean Compound 1 Plasma Concentration, oral 15 mg/kg, Day 14, 2 h, Overall): 1410 ng/mL
- concentration at 4 h (both sexes, 15 mg/kg, Mean Compound 1 Plasma Concentration, oral 15 mg/kg, Day 14, 4 h, Overall): 1330 ng/mL
- concentration at 8 h (both sexes, 15 mg/kg, Mean Compound 1 Plasma Concentration, oral 15 mg/kg, Day 14, 8 h, Overall): 1070 ng/mL
- concentration at 12 h (both sexes, 15 mg/kg, Mean Compound 1 Plasma Concentration, oral 15 mg/kg, Day 14, 12 h, Overall): 715 ng/mL
- concentration at 24 h [1]: 95.3 ng/mL
- AUC(0-inf) [2]: 19900 ng·h/mL
- AUC(0-t) [2]: 19400 ng·h/mL
- Cmax [2]: 1490 ng/mL
- Tmax [2]: 2 h
- half-life [2]: 4.05 h
- AUC(0-inf) [3]: 18700 ng·h/mL
- AUC(0-t) [3]: 18100 ng·h/mL
- Cmax [3]: 1410 ng/mL
- Tmax [3]: 2 h
- half-life [3]: 4.47 h
- concentration at 0.5 h (both sexes, 30 mg/kg, Mean Compound 1 Plasma Concentration, oral 30 mg/kg, Day 1, 0.5 h, Overall): 1790 ng/mL
- concentration at 2 h (both sexes, 30 mg/kg, Mean Compound 1 Plasma Concentration, oral 30 mg/kg, Day 1, 2 h, Overall): 2360 ng/mL
- concentration at 4 h (both sexes, 30 mg/kg, Mean Compound 1 Plasma Concentration, oral 30 mg/kg, Day 1, 4 h, Overall): 2380 ng/mL
- concentration at 8 h (both sexes, 30 mg/kg, Mean Compound 1 Plasma Concentration, oral 30 mg/kg, Day 1, 8 h, Overall): 2160 ng/mL
- concentration at 12 h (both sexes, 30 mg/kg, Mean Compound 1 Plasma Concentration, oral 30 mg/kg, Day 1, 12 h, Overall): 1800 ng/mL
- concentration at 0.5 h (both sexes, 30 mg/kg, Mean Compound 1 Plasma Concentration, oral 30 mg/kg, Day 14, 0.5 h, Overall): 1270 ng/mL
- concentration at 1 h [4]: 1880 ng/mL
- concentration at 2 h (both sexes, 30 mg/kg, Mean Compound 1 Plasma Concentration, oral 30 mg/kg, Day 14, 2 h, Overall): 1800 ng/mL
- concentration at 4 h (both sexes, 30 mg/kg, Mean Compound 1 Plasma Concentration, oral 30 mg/kg, Day 14, 4 h, Overall): 2180 ng/mL
- concentration at 8 h (both sexes, 30 mg/kg, Mean Compound 1 Plasma Concentration, oral 30 mg/kg, Day 14, 8 h, Overall): 1920 ng/mL
- concentration at 12 h (both sexes, 30 mg/kg, Mean Compound 1 Plasma Concentration, oral 30 mg/kg, Day 14, 12 h, Overall): 1800 ng/mL
- concentration at 24 h [4]: 263 ng/mL
- AUC(0-inf) [5]: 39400 ng·h/mL
- AUC(0-t) [5]: 37500 ng·h/mL
- Cmax [5]: 2380 ng/mL
- Tmax [5]: 4 h
- half-life [5]: 4.98 h
- AUC(0-inf) [6]: 37000 ng·h/mL
- AUC(0-t) [6]: 35000 ng·h/mL
- Cmax [6]: 2180 ng/mL
- Tmax [6]: 4 h
- half-life [6]: 5.23 h
- concentration at […] (both, 2 mg/kg, Mean Compound 1 Plasma Concentration, oral 2 mg/kg, Day 14, […], Overall): 4 ng/mL
- concentration at […] (both, 5 mg/kg, Mean Compound 1 Plasma Concentration, oral 5 mg/kg, Day 1, […], Overall): 20.8 ng/mL
- concentration at […] (both, 5 mg/kg, Mean Compound 1 Plasma Concentration, oral 5 mg/kg, Day 14, […], Overall): 49 ng/mL
- concentration at […] (both, 15 mg/kg, Mean Compound 1 Plasma Concentration, oral 15 mg/kg, Day 1, […], Overall): 72.5 ng/mL
- concentration at […] (both, 15 mg/kg, Mean Compound 1 Plasma Concentration, oral 15 mg/kg, Day 14, […], Overall): 119 ng/mL
- concentration at […] (both, 30 mg/kg, Mean Compound 1 Plasma Concentration, oral 30 mg/kg, Day 1, […], Overall): 150 ng/mL
- concentration at […] (both, 30 mg/kg, Mean Compound 1 Plasma Concentration, oral 30 mg/kg, Day 14, […], Overall): 372 ng/mL
- concentration at 0.5 h (female, 2 mg/kg, Compound 1 Plasma Concentration, Female, Day 1, 0.5 h, daily oral 2 mg/kg (Group 7), individual animals): 139 ng/mL
- concentration at 2 h (female, 2 mg/kg, Compound 1 Plasma Concentration, Female, Day 1, 2 h, daily oral 2 mg/kg (Group 7), individual animals): 216 ng/mL
- concentration at 12 h (female, 2 mg/kg, Compound 1 Plasma Concentration, Female, Day 1, 12 h, daily oral 2 mg/kg (Group 7), individual animals): 91.8 ng/mL
- concentration at 0.5 h (female, 2 mg/kg, Compound 1 Plasma Concentration, Female, Day 14, 0.5 h, daily oral 2 mg/kg (Group 7), individual animals): 192 ng/mL
- concentration at 1 h [7]: 108 ng/mL
- concentration at 2 h (female, 2 mg/kg, Compound 1 Plasma Concentration, Female, Day 14, 2 h, daily oral 2 mg/kg (Group 7), individual animals): 224 ng/mL
- concentration at 4 h (female, 2 mg/kg, Compound 1 Plasma Concentration, Female, Day 14, 4 h, daily oral 2 mg/kg (Group 7), individual animals): 129 ng/mL
- concentration at 24 h [7]: 21.6 ng/mL
- concentration at […] (female, 2 mg/kg, Compound 1 Plasma Concentration, Female, Day 14, […], daily oral 2 mg/kg (Group 7), individual animals): 20 ng/mL
